Measured values published in patent US20210070748A1, “INHIBITORS OF BRUTONS TYROSINE KINASE” (Pharmacyclics LLC, priority 2015, published 2021).

Columns and labels:
TEC = biological target: T1, TEC (Homo sapiens, UniProt P42680); test: Inhibition of a panel of kinases, in vitro HotSpot kinase assay: TEC; assay type: biochemical; settings: D-compounds panel data; 1 μM ATP
T1 sequence (P42680 1-631): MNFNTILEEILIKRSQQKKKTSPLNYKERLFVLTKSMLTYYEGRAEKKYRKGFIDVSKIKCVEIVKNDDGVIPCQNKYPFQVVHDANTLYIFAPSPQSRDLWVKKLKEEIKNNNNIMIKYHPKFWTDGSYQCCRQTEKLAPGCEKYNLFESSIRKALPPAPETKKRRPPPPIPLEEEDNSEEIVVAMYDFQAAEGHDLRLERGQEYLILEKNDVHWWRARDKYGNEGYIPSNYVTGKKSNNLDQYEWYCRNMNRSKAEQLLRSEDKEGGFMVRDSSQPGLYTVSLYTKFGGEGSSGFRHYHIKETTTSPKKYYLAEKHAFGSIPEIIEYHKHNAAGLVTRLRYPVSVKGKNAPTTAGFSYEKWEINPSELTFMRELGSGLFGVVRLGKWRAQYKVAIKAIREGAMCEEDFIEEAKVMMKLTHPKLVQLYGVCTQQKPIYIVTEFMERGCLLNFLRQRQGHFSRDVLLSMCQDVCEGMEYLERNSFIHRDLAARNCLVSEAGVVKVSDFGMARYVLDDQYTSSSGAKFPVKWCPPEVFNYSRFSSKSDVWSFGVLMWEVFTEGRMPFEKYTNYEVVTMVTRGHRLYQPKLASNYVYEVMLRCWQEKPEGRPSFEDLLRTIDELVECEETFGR
Protocol: The degree of inhibition of a panel of kinases is determined using the in vitro HotSpot kinase assay (purified enzymes, ^33P-ATP, an appropriate substrate and 1 μM ATP).

BTK-WT = biological target: T2, BTK-WT (Homo sapiens, UniProt Q06187); test: Btk in vitro inhibitory activity (one of Method A TR-FRET, Method B electrophoretic mobility shift, Method C radiometric filter binding); assay type: biochemical; settings: D-compounds panel data; read-out: IC50 BTK-WT
T2 construct: purified from insect cells as a full-length construct containing an N-terminal 6X-His tag; His6 (N); made in house; host or cells: insect cells (baculovirus Sf21 in Method B)
T2 sequence (Q06187 whole entry): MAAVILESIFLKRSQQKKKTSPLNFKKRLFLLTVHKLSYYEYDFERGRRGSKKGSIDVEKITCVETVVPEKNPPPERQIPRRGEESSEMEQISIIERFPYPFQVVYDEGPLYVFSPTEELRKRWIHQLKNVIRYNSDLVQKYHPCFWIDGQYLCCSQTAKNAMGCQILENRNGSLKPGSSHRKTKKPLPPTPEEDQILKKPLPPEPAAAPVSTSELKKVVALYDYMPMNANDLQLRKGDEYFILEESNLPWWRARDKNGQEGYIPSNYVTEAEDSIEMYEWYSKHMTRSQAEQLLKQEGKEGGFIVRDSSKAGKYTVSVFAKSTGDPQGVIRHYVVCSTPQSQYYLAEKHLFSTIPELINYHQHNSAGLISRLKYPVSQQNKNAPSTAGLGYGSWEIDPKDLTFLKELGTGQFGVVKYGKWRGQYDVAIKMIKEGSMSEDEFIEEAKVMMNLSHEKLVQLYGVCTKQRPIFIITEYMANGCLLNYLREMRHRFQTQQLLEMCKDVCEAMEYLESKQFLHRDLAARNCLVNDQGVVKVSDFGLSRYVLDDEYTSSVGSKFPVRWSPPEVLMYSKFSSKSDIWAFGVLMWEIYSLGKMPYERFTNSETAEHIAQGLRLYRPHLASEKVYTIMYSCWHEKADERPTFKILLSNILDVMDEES

Row | IC50 (TEC) [nM] | IC50 (BTK-WT) [nM] | SMILES
1 | 100 to 1000 | ≤ 10 | Cc1cc(Nc2cc(N3CCC[C@@H](NC(=O)c4ccc(C5CC5)cc4F)[C@H]3C)cnc2C(N)=O)sn1 [Example D-116, 5-[(2R,3R)-3-(4-cyclopropyl-2-fluorobenzamido)-2-methylpiperidin-1-yl]-3-[(3-methyl-1,2-thiazol-5-yl)amino]pyridine-2-carboxamide]
2 | 100 to 1000 | 10 to 100 | C[C@@H]1[C@H](NC(=O)c2ccc(C3CC3)cc2F)CCCN1c1cnc(C(N)=O)c(Nc2cnn(C)c2)c1 [Example D-117, 5-[(2R,3R)-3-(4-cyclopropyl-2-fluorobenzamido)-2-methylpiperidin-1-yl]-3-[(1-methyl-1H-pyrazol-4-yl)amino]pyridine-2-carboxamide]
3 | 10 to 100 | ≤ 10 | C[C@@H]1[C@H](NC(=O)c2ccc(C3CC3)cc2F)CCCN1c1cnc(C(N)=O)c(Nc2cc(CN(C)C)ns2)n1 [Example D-122, 5-[(2R,3R)-3-(4-cyclopropyl-2-fluorobenzamido)-2-methylpiperidin-1-yl]-3-({3-[(dimethylamino)methyl]-1,2-thiazol-5-yl}amino)pyrazine-2-carboxamide]
4 | 10 to 100 | ≤ 10 | CC(C)n1cc(Nc2nc(N3CCC[C@@H](NC(=O)c4ccc(C5CC5)cc4F)[C@H]3C)cnc2C(N)=O)cn1 [Example D-123, 5-[(2R,3R)-3-(4-cyclopropyl-2-fluorobenzamido)-2-methylpiperidin-1-yl]-3-{[1-(propan-2-yl)-1H-pyrazol-4-yl]amino}pyrazine-2-carboxamide]
5 | 1000 to 10000 | 10 to 100 | C[C@@H]1[C@H](NC(=O)c2ccc(C3CC3)cc2F)CCCN1c1cnc(C(N)=O)c(Nc2ccc3cccnc3c2)n1 [Example D-124, 5-[(2R,3R)-3-(4-cyclopropyl-2-fluorobenzamido)-2-methylpiperidin-1-yl]-3-[(quinolin-7-yl)amino]pyrazine-2-carboxamide]
6 | 1000 to 10000 | ≤ 10 | C[C@@H]1[C@H](NC(=O)c2ccc(C3CC3)cc2F)CCCN1c1cnc(C(N)=O)c(Nc2ccc(CN3CCN(C)CC3)cc2)c1 [Example D-125, 5-[(2R,3R)-3-(4-cyclopropyl-2-fluorobenzamido)-2-methylpiperidin-1-yl]-3-({4-[(4-methylpiperazin-1-yl)methyl]phenyl}amino)pyridine-2-carboxamide]
7 | 1000 to 10000 | 10 to 100 | C[C@@H]1[C@H](NC(=O)c2ccc(C3CC3)cc2F)CCCN1c1cnc(C(N)=O)c(Nc2ccc(N3CCN(C)CC3)cc2)c1 [Example D-126, 5-[(2R,3R)-3-(4-cyclopropyl-2-fluorobenzamido)-2-methylpiperidin-1-yl]-3-{[4-(4-methylpiperazin-1-yl)phenyl]amino}pyridine-2-carboxamide]
8 | > 10000 | 100 to 1000 | C[C@@H]1[C@H](NC(=O)c2ccc(C3CC3)cc2F)CCCN1c1cnc(C(N)=O)c(Nc2ccn(C)n2)n1 [Example D-129, 5-[(2R,3R)-3-(4-cyclopropyl-2-fluorobenzamido)-2-methylpiperidin-1-yl]-3-[(1-methyl-1H-pyrazol-3-yl)amino]pyrazine-2-carboxamide]

Further lines, the compound ahead of its results:

Row | SMILES | IC50 (TEC) [nM] | IC50 (BTK-WT) [nM]
9 | CNC(=O)N[C@@H]1CCCN(c2cnc(C(N)=O)c(Nc3cnn(C)c3)n2)[C@@H]1C [Example D-109, 3-[(1-methyl-1H-pyrazol-4-yl)amino]-5-[(2R,3R)-2-methyl-3-[(methylcarbamoyl)amino]piperidin-1-yl]pyrazine-2-carboxamide] | 10 to 100 | ≤ 10
10 | C[C@@H]1[C@H](NC(=O)N(C)C)CCCN1c1cnc(C(N)=O)c(Nc2ccc(C(=O)N3CCN(C)CC3)cc2)n1 [Example D-110, 5-[(2R,3R)-3-[(dimethylcarbamoyl)amino]-2-methylpiperidin-1-yl]-3-{[4-(4-methylpiperazine-1-carbonyl)phenyl]amino}pyrazine-2-carboxamide] | 100 to 1000 | ≤ 10
11 | C[C@@H]1[C@H](NC(=O)N(C)C)CCCN1c1cnc(C(N)=O)c(Nc2ccc(N3CCN(C)CC3)cc2)n1 [Example D-111, 5-[(2R,3R)-3-[(dimethylcarbamoyl)amino]-2-methylpiperidin-1-yl]-3-{[4-(4-methylpiperazin-1-yl)phenyl]amino}pyrazine-2-carboxamide] | 100 to 1000 | ≤ 10
12 | C[C@@H]1[C@H](NC(=O)c2ccc(C3CC3)cc2)CCCN1c1cnc(C(N)=O)c(Nc2ccc(C3(C)CCN(C4CCCC4)CC3)cc2)n1 [Example D-112, 3-{[4-(1-cyclopentyl-4-methylpiperidin-4-yl)phenyl]amino}-5-[(2R,3R)-3-(4-cyclopropylbenzamido)-2-methylpiperidin-1-yl]pyrazine-2-carboxamide] | ≤ 10 | ≤ 10
13 | C[C@@H]1[C@H](NC(=O)c2ccc(C3CC3)cc2F)CCCN1c1cnc(C(N)=O)c(Nc2ccc(CN3CCN(C)CC3)cc2)n1 [Example D-113, 5-[(2R,3R)-3-(4-cyclopropyl-2-fluorobenzamido)-2-methylpiperidin-1-yl]-3-({4-[(4-methylpiperazin-1-yl)methyl]phenyl}amino)pyrazine-2-carboxamide] | 10 to 100 | ≤ 10
14 | C[C@@H]1[C@H](NC(=O)c2ccc(C3CC3)cc2F)CCCN1c1cnc(C(N)=O)c(Nc2ccc3ncccc3c2)n1 [Example D-114, 5-[(2R,3R)-3-(4-cyclopropyl-2-fluorobenzamido)-2-methylpiperidin-1-yl]-3-[(quinolin-6-yl)amino]pyrazine-2-carboxamide] | 10 to 100 | 10 to 100
15 | C[C@@H]1[C@H](NC(=O)N(C)C)CCCN1c1cnc(C(N)=O)c(Nc2cc(CN3CCOCC3)ns2)n1 [Example D-118, 5-[(2R,3R)-3-[(dimethylcarbamoyl)amino]-2-methylpiperidin-1-yl]-3-{[3-(morpholin-4-ylmethyl)-1,2-thiazol-5-yl]amino}pyrazine-2-carboxamide] | 100 to 1000 | ≤ 10
16 | Cc1nsc(Nc2nc(N3CCC[C@@H](NC(=O)N(C)C)[C@H]3C)cnc2C(N)=O)c1C [Example D-119, 3-[(dimethyl-1,2-thiazol-5-yl)amino]-5-[(2R,3R)-3-[(dimethylcarbamoyl)amino]-2-methylpiperidin-1-yl]pyrazine-2-carboxamide] | > 10000 | 100 to 1000
17 | C[C@@H]1[C@H](NC(=O)N(C)C)CCCN1c1cnc(C(N)=O)c(Nc2ccc(CN3CCN(C)CC3)cc2)c1 [Example D-120, 5-[(2R,3R)-3-[(dimethylcarbamoyl)amino]-2-methylpiperidin-1-yl]-3-({4-[(4-methylpiperazin-1-yl)methyl]phenyl}amino)pyridine-2-carboxamide] | > 10000 | 100 to 1000
18 | C[C@@H]1[C@H](NC(=O)N(C)C)CCCN1c1cnc(C(N)=O)c(Nc2ccc3cccnc3c2)n1 [Example D-121, 5-[(2R,3R)-3-[(dimethylcarbamoyl)amino]-2-methylpiperidin-1-yl]-3-[(quinolin-7-yl)amino]pyrazine-2-carboxamide] | 1000 to 10000 | 10 to 100
19 | C[C@@H]1[C@H](NC(=O)N(C)C)CCCN1c1cnc(C(N)=O)c(Nc2ccc(N3CCN(C)CC3)cc2)c1 [Example D-127, 5-[(2R,3R)-3-[(dimethylcarbamoyl)amino]-2-methylpiperidin-1-yl]-3-{[4-(4-methylpiperazin-1-yl)phenyl]amino}pyridine-2-carboxamide] | 1000 to 10000 | 100 to 1000
20 | C[C@@H]1[C@H](NC(=O)N(C)C)CCCN1c1cnc(C(N)=O)c(Nc2cnn(C)c2)n1 [Example D-128, 5-[(2R,3R)-3-[(dimethylcarbamoyl)amino]-2-methylpiperidin-1-yl]-3-[(1-methyl-1H-pyrazol-4-yl)amino]pyrazine-2-carboxamide] | 10 to 100 | ≤ 10
21 | C[C@@H]1[C@H](NC(=O)c2ccc(C3CC3)cc2F)CCCN1c1cnc(C(N)=O)c(Nc2ccc(S(=O)(=O)N3CCN(C)CC3)cc2)n1 [Example D-130, 5-[(2R,3R)-3-(4-cyclopropyl-2-fluorobenzamido)-2-methylpiperidin-1-yl]-3-({4-[(4-methylpiperazin-1-yl)sulfonyl]phenyl}amino)pyrazine-2-carboxamide] | 100 to 1000 | ≤ 10
22 | Cc1ccc(-c2cnc([C@@H]3CCCN(c4cnc(C(N)=O)c(Nc5cc(C)ns5)n4)[C@@H]3C)[nH]2)cc1 [Example D-131, 3-[(3-methyl-1,2-thiazol-5-yl)amino]-5-[(2R,3R)-2-methyl-3-[5-(4-methylphenyl)-1H-imidazol-2-yl]piperidin-1-yl]pyrazine-2-carboxamide] | 100 to 1000 | 10 to 100
23 | C[C@@H]1[C@H](NC(=O)c2ccc(C3CC3)cc2F)CCCN1c1cnc(C(N)=O)c(Nc2ccc(CN3CCN(C)CC3)cn2)n1 [Example D-132, 5-[(2R,3R)-3-(4-cyclopropyl-2-fluorobenzamido)-2-methylpiperidin-1-yl]-3-({5-[(4-methylpiperazin-1-yl)methyl]pyridin-2-yl}amino)pyrazine-2-carboxamide] | 1000 to 10000 | 10 to 100
